This is an account of results in ChEMBL document CHEMBL1201862, “PubChem BioAssay data set” (2004).

Active and inactive are the calls of the source.

For assay [1], the target named is T1, Cytochrome P450 3A4 (Homo sapiens, UniProt P08684). As to conditions: read-out: Potency.
In assay [2] the target is T1, Cytochrome P450 3A4. As to conditions: Potency.
The subject of assay [3] is HEK293. Nature of the assay: cells. As to conditions: Homo sapiens. The assay is classed as functional, cell-based.
The test system of assay [4] is HEK293. Briefly: NOD2 signaling inhibitors in MDP-stimulated cells, cell-based, uHTS, luminescence (AID 2001). It counts as functional. As to conditions: Homo sapiens.
The target of assay [5] is Serine/threonine-protein phosphatase (Homo sapiens, UniProt Q9BPW0). Briefly: Counterscreen for inhibitors of PP1: fluorescence-based biochemical high throughput dose response assay to identify inhibitors of Protein Phosphatase 5 (PP5). [Related pubchem assays: 2034 (Summary (PP5 inhibitors)), 1987 (PP5 inhibitors in singlate), 2235 (PP1 inhibitors in singlate)].
The test system of assay [6] is HEK293. Briefly: inhibition of NOD1-driven NF-kB reporter – cell-based, luminescence, uHTS, primary screen (AID 1578). It counts as functional. As to conditions: Homo sapiens.
Assay [7] addresses Serine/threonine-protein phosphatase PP1-alpha catalytic subunit (Homo sapiens, UniProt P62136). Briefly: inhibition of protein phosphatase 1 activity – biochemical, fluorescence, dose response (AID 2403).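 Note: phosphatase turnover of OMFP into fluorescent 3-O-methylfluorescein.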
Assay [8] relates to HEK293. Nature of the assay: cells. As to conditions: Homo sapiens. It counts as functional, cell-based. The source holds these as a separate data set.
The target of assay [9] is Peroxisome proliferator-activated receptor gamma/Nuclear receptor corepressor 2 (Homo sapiens, UniProt P37231+Q9Y618). It counts as functional.
In assay [10] the target is Photoreceptor-specific nuclear receptor (Homo sapiens, UniProt Q9Y5X4). The assay is classed as functional.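 Note: potency for compounds that break the NR2E3 corepressor complex and count as activators.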
The target of assay [11] is Mothers against decapentaplegic homolog 3 (Homo sapiens, UniProt P84022). Briefly: blockers of Smad3 complex formation in lysate – cell lysate, secondary confirmation, chemiluminescent ELISA, HEK293 lysate, dose response (AID 1058). The assay is classed as functional.
Assay [12] has as its system Vero. Nature of the assay: host cell viability loss, Vero E6 – synthesized analogs, cytotoxicity control for West Nile virus antiviral project, SAR follow-up (AID 2244). The assay is classed as functional. As to conditions: Chlorocebus sabaeus.
The target in assay [13] is Voltage-gated N-type calcium channel alpha-1B subunit/Amyloid beta A4 precursor protein-binding family A member 1 (Homo sapiens, UniProt Q00975+Q02410). Briefly: disruptors of Mint-PDZ/N-type channel peptide interaction – biochemical, HTRF, set 2, SAR follow-up (AID 434980). It counts as functional.
Assay [14] concerns the target Melanin-concentrating hormone receptor 1 (Homo sapiens, UniProt Q99705). Briefly: Late-stage fluorescence-based counterscreen for antagonists of the G-protein coupled receptor 7 (GPR7): cell-based dose response assay to identify antagonists of the melanin-concentrating hormone receptor 1 (MCHR1). [Related pubchem assays (depositor defined):AID1861, AID1880, AID1952, AID2148, AID2251, AID2257, AID485339]. It counts as functional.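 Note: stimulated with 30 nM MCH peptide agonist.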

The nature of assay [15]: alpha-synuclein stem-loop luciferase translation blockers – H4 neuroglioma cells, luminescence, confirmation (AID 1988). It counts as functional, cell-based.
Assay [16] in a line: Luminescence Cell-Based Dose Response HTS to Identify Inhibitors of 5'UTR Stem-Loop Driven Prion Protein mRNA Translation in H4 Neuroglioblastoma Cells. [Related pubchem assays: 1827 (Project Summary), 1813 (Primary HTS)]. The assay is classed as functional.
For assay [17], the system named is INS1. Briefly: INS-1E survival protection against cytokine death – cell-based, luminescence, retest, dose response (AID 449756).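 Note: cell death triggered by IL-1 beta plus TNF-alpha plus IFN-gamma mixture; protective hits raise ATP signal compared with cytokine alone wells.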 It counts as functional. As to conditions: Rattus norvegicus.
Assay [18] can be described thus: fluconazole-exposed Candida albicans growth modulators – fluorescence, retest, confirmation (AID 2467). It counts as functional, cell-based.
Assay [19] can be described thus: NIH3T3 cell viability loss – ATP luminescence, mouse fibroblasts, counter-screen, dose response (AID 2010).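 Note: cells exposed to compound for about 90 hours before reading.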 It counts as functional, cell-based.
For assay [20], the system named is Streptococcus. Briefly: GAS UMAA2166 growth inhibition – luminescence, BacTiterGlo, counter-screen for streptokinase expression inhibitor project, dose response (AID 1915).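 Note: potency for reduction of bacterial viability or growth.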 The assay is classed as functional, organism-based.
Assay [21] has as its target T2, Serine/threonine-protein phosphatase (Candida dubliniensis (strain CD36 / CBS 7987 / NCPF 3949 / NRRLY-17841) (Yeast), UniProt B9W6M3).
T2 sequence (B9W6M3 whole entry): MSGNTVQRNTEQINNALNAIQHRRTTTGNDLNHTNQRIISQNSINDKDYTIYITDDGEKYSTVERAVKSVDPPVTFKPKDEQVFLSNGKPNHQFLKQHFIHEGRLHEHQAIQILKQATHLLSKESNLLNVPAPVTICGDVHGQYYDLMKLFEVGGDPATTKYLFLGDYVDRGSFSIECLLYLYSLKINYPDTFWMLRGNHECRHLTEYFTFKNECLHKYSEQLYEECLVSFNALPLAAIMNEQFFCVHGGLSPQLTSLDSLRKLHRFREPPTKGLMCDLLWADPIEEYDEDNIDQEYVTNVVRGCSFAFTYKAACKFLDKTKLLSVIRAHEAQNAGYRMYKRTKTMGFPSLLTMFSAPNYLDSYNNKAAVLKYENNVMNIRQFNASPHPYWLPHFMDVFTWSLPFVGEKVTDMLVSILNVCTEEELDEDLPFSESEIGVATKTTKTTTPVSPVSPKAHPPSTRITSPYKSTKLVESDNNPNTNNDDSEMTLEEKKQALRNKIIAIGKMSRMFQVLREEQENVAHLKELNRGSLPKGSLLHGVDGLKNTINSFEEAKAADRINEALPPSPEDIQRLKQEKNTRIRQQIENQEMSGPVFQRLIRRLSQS
Nature of the assay: blockers of CaCl2-induced CDRE-lacZ signaling – S. cerevisiae, luminescence, secondary, dose response (AID 2388).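 Note: yeast reporter cells carrying a calcineurin-responsive lacZ construct stimulated with calcium chloride; luminescent beta-galactosidase reporter signal in whole cells rather than isolated phosphatase activity; potency for inhibition where a drop in reporter signal means calcineurin blockade.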 It counts as functional, cell-based.

The target of assay [22] is ATP-dependent molecular chaperone HSP82 (Candida albicans (strain WO-1) (Yeast), UniProt C4YTQ8). Nature of the assay: steroid-induced GRE reporter decrease in yeast – S. cerevisiae, luminescence, Hsp90 inhibitor project, dose response (AID 2400).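 Note: beta-galactosidase luminescence from glucocorticoid response element reporter as proxy for Hsp90 function; inhibitor potency where signal loss means Hsp90 inhibition.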 It counts as functional, cell-based.
Assay [23] has as its system HEK293. Nature of the assay: cells. The assay is classed as functional, cell-based. As to conditions: Homo sapiens. This is another data set of the same source.
A short description of assay [24]: NIH-3T3 fibroblast cytotoxicity, dose response, cytotoxicity control, cell-based, fluorescence, Alamar Blue, secondary assay (AID 2327).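 Note: NIH-3T3 mouse fibroblasts cultured with fluconazole at 8 µg/mL.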 It counts as functional.
Assay [25] can be described thus: Trypanosoma cruzi growth suppression in host cells – NIH3T3 host cells, beta-gal luminescence, confirmation (AID 2044).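 Note: intracellular parasites grown in NIH/3T3 mouse fibroblasts as host cells; luminescent beta-galactosidase reporter signal from transgenic T. cruzi replicating inside host cells; inhibitors lower the luminescence signal.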 The assay is classed as functional, cell-based.
The nature of assay [26]: cells. It counts as functional, cell-based.
For assay [27], the target named is Nucleotide-binding oligomerization domain-containing protein 2 (Homo sapiens, UniProt Q9HC29). Briefly: inhibition of NOD2-driven NF-kB reporter – cell-based, luminescence, uHTS, HEK293 (AID 1566). The assay is classed as functional.
A short description of assay [28]: luciferase reporter signal reduction – luminescence, H4-C neuroglioblastoma cells, dose response (AID 2458).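 Note: H4 neuroglioblastoma cells stably carrying a luciferase reporter gene fusion.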 It counts as functional, cell-based.
The subject of assay [29] is Streptococcus sp. 'group A'. Briefly: Streptococcus pyogenes SK(-)GAS viability under kanamycin – luminescence, BacTiterGlo, confirmation, counter-screen for streptokinase expression inhibitor project, dose response (AID 1900). The assay is classed as functional, organism-based.
Assay [30] is described as follows: alpha-synuclein stem-loop translation blockers – luminescence, H4 neuroglioblastoma cells, dose confirmation, confirmation (AID 2454).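 Note: H4 neuroglioblastoma cells carrying an alpha-synuclein 5'UTR luciferase reporter; potency for inhibition of the luciferase signal.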 It counts as functional, cell-based.
In assay [31] the target is T3, Heat shock 70 kDa protein 1A (Homo sapiens, UniProt P0DMV8). Briefly: small-molecule inhibition of Hsp70 – biochemical, TR-FRET (AID 786).
For assay [32], the target named is T3, Heat shock 70 kDa protein 1A. Nature of the assay: small molecules displacing fluorescent ligand from Hsp70 – biochemical, fluorescence polarization, primary screen (AID 583).
In assay [33] the target is T4, Dual specificity protein phosphatase 6 (Rattus norvegicus, UniProt Q64346).
T4 sequence (Q64346 whole entry): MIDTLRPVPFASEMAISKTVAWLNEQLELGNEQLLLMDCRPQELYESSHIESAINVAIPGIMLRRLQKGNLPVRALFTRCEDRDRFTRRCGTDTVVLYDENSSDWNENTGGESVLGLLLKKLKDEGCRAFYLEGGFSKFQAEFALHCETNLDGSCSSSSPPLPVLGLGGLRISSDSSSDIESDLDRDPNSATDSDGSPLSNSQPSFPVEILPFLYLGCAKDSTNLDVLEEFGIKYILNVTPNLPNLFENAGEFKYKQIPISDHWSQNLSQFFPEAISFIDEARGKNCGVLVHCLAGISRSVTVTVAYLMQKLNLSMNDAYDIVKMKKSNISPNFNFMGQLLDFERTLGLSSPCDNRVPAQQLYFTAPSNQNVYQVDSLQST
Nature of the assay: inhibition of rat DUSP6 enzyme activity – biochemical, in vitro, primary screen (AID 425).

Assay [34] deals with T5, Bcl-2-like protein 10 (Homo sapiens, UniProt Q9HD36).
T5 sequence (Q9HD36 whole entry): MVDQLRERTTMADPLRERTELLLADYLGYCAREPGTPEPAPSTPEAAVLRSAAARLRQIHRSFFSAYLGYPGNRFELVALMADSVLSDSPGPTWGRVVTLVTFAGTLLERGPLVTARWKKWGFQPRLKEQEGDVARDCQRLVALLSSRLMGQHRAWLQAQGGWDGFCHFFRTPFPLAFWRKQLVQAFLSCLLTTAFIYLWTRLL
Nature of the assay: Bcl-B/TR3 peptide binding disruption – biochemical, fluorescence polarization, FITC-TR3 peptide, selectivity assay for Bfl-1 inhibitor project, primary screen (AID 748).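 Note: fluorescence polarization from a fluorescein-labelled TR3 peptide binding purified Bcl-B.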

Assay [35] addresses Beta-galactosidase (Escherichia coli, UniProt Q8VNN2). Briefly: detection-enzyme interference by beta-gal modulators – biochemical, E. coli enzyme, set 3, artefact control for CCR6 antagonist project, dose response (AID 504712). It counts as functional.
Assay [36] has as its target C-C chemokine receptor type 6 (Homo sapiens, UniProt P51684). Briefly: antagonism of CCR6 beta-arrestin recruitment – cell-based, luminescent beta-arrestin readout, dose response (AID 504728). It counts as functional.

T1 sequence (P08684 whole entry): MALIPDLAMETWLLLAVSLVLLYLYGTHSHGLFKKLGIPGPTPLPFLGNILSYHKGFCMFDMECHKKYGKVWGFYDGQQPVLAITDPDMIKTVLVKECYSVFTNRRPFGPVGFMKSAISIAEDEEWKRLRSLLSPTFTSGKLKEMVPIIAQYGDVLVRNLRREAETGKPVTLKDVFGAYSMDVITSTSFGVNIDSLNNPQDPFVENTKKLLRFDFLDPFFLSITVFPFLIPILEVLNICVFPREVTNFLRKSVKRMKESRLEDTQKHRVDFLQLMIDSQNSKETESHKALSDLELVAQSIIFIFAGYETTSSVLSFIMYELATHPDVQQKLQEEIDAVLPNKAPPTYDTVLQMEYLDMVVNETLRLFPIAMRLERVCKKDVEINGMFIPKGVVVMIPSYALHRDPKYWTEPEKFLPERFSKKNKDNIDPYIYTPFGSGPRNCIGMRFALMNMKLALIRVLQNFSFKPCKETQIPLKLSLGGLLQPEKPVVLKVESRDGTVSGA
T3 sequence (P0DMV8 whole entry): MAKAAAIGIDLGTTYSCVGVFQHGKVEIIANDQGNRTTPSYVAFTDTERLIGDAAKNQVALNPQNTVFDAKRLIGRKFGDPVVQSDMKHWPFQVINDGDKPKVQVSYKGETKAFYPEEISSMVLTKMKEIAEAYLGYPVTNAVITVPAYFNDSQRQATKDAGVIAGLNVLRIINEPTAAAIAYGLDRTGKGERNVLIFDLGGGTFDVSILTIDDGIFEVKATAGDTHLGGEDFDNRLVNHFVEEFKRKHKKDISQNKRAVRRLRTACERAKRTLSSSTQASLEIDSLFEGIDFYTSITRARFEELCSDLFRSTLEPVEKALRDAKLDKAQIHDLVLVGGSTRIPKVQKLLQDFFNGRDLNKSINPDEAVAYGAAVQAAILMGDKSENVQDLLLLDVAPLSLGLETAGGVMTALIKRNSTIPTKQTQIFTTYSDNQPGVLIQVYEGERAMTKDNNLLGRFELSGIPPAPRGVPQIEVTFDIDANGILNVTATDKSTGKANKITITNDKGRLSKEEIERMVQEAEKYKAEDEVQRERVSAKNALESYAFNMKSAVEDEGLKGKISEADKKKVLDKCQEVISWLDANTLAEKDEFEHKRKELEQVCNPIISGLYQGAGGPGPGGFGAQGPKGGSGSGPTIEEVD
Sequence of Peroxisome proliferator-activated receptor gamma/Nuclear receptor corepressor 2 (P37231 whole entry): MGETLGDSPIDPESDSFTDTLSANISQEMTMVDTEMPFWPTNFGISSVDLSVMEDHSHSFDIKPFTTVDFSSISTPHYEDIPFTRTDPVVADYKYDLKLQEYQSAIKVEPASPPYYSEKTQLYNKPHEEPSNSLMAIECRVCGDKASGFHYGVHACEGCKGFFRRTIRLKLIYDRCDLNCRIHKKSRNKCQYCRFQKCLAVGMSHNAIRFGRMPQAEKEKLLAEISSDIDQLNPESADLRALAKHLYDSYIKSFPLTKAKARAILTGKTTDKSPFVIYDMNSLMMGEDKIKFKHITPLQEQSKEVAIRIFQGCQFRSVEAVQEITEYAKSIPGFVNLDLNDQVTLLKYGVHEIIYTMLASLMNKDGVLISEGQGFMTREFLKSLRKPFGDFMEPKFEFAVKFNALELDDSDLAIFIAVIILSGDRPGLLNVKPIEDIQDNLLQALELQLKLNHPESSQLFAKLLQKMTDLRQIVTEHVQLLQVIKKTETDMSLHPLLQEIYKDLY
Sequence of Peroxisome proliferator-activated receptor gamma/Nuclear receptor corepressor 2 (Q9Y618 whole entry): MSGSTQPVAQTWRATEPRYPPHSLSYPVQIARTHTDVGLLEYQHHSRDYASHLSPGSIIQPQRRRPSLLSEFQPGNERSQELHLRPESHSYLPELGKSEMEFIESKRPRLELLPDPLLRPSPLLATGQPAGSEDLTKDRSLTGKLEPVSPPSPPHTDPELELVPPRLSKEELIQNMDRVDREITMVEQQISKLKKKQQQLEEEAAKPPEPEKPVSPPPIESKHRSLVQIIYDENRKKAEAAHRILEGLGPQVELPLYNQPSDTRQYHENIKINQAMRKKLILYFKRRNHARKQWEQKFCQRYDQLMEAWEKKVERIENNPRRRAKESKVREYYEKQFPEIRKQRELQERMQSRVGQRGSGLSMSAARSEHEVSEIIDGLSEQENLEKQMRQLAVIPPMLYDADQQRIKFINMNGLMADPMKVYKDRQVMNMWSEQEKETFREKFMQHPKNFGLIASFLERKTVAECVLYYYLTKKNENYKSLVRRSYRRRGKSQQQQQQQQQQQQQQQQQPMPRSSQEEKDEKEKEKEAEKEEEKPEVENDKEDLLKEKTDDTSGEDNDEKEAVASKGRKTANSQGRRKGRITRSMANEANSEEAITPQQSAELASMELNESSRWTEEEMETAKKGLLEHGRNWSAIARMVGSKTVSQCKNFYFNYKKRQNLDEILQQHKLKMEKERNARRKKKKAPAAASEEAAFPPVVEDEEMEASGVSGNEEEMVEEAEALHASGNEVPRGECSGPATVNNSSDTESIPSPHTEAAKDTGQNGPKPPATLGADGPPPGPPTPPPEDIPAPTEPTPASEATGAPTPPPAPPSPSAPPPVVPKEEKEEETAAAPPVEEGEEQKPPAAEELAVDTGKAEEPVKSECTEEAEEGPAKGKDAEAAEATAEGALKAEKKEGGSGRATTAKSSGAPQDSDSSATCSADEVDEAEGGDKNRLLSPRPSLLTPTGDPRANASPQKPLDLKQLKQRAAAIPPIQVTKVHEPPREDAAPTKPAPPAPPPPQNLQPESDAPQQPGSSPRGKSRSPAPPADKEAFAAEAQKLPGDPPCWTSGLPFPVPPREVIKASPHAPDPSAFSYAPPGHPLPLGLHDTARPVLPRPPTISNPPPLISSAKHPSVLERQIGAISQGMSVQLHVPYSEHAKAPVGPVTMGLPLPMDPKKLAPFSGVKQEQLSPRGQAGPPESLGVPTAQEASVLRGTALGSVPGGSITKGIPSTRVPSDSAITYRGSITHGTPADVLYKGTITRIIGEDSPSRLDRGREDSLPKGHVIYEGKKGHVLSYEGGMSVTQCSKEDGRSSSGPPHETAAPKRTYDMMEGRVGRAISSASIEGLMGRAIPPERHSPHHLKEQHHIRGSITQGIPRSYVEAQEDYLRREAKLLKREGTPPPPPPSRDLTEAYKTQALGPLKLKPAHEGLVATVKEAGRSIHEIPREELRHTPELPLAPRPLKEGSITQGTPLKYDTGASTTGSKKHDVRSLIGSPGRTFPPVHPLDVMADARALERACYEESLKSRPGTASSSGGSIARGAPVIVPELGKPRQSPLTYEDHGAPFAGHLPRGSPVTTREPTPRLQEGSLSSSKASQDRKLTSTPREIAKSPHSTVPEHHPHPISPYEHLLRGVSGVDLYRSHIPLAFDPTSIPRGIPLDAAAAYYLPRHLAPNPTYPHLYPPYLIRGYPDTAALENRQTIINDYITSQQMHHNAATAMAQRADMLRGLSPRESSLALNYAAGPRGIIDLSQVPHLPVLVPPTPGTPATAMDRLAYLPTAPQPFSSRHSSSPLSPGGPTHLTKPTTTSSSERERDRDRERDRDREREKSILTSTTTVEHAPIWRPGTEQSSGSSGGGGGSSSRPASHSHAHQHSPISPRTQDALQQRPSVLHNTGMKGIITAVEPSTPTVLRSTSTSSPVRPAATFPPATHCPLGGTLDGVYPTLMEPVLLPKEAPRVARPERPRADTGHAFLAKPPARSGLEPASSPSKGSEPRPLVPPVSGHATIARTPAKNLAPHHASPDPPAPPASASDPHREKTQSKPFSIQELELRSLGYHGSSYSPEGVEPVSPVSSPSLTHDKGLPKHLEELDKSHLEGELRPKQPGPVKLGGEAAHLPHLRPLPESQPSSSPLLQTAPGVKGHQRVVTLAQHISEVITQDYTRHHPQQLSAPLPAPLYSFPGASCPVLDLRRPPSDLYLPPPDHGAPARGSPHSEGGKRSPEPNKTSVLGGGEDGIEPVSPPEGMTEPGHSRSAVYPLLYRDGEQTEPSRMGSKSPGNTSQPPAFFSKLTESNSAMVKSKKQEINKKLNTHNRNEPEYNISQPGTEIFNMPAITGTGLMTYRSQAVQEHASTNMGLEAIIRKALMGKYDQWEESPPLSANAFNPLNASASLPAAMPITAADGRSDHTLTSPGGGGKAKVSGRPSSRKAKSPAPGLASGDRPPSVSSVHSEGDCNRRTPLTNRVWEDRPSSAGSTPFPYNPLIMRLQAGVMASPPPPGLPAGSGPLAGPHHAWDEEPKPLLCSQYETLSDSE
Sequence of ATP-dependent molecular chaperone HSP82 (C4YTQ8 whole entry): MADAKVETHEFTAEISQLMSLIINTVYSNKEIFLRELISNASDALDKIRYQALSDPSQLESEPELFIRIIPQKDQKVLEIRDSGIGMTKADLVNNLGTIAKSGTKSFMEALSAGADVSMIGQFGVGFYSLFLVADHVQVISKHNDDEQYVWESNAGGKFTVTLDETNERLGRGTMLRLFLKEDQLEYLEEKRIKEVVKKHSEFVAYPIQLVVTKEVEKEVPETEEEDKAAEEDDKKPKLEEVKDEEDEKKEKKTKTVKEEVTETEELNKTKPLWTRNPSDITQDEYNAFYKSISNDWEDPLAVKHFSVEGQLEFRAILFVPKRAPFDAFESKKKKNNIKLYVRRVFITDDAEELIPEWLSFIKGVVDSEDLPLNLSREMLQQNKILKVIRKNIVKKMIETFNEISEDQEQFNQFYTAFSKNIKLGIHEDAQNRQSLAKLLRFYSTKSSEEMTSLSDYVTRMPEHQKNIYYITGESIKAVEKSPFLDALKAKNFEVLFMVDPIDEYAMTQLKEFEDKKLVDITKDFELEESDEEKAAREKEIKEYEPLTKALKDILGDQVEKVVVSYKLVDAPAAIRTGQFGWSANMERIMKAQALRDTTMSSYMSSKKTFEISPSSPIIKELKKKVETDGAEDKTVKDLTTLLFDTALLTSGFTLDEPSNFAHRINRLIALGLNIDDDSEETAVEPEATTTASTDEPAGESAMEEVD

In the case of `COC(=O)C1=C(C)N(Cc2ccccc2)C2=C(C(C)=O)C[C@@](O)(C(=O)OC)C(=O)N2C1c1ccccc1` (stereo not given in full), the AC50 in assay [1] and in assay [2] was 3.16 µM (inconclusive) in each case.
As to `CCOC(=O)c1sc(N2C(=O)C(O)=C(C(=O)c3ccco3)C2c2cccc([N+](=O)[O-])c2)nc1C` (stereo not given), the IC50 is > 20 µM (inactive) in [3]; > 20 µM (inactive) in [4]; > 67 µM (not active) in assay [5]; 11.8 µM (not active) in [7]; > 20 µM (inactive) in assay [8]. Also, the EC50 in assay [6] is > 20 µM (inactive).
In the case of `COc1ccc(-n2c(=S)[nH]c3c(oc4ccccc43)c2=O)cc1`, the IC50 in assay [9] was 4.93 µM (active); in assay [10], 2.32 µM (active).
For the molecule `COc1ccc(C(c2cc3c(cc2O)OCO3)N2CCCCC2)cc1` (stereo not given), the half-inhibitory concentration (IC50) in assay [11] is < 2.5 µM (not active).
On to `O=C(Nc1nc(-c2ccc(Cl)cc2)cs1)c1ccccc1F`, for which, in assay [12], the CC50 is > 40 µM (active).
In the case of `O=C(NCCc1ccc(Cl)cc1)c1cc(-c2ccco2)nc2ccccc12`, the IC50 in assay [13] is 31.1 µM (active).
On to `COc1ccc(Oc2c(Cl)cnn(-c3cccc4ccccc34)c2=O)cc1`, for which the IC50 in assay [14] is 8.4 µM (active).
Take `Oc1c(Br)cc(Br)cc1/C=N/Nc1ccc(Cl)nn1`: the half-maximal effective concentration (EC50) in assay [15] is < 0.1 µM (active); in [16] it was 0.287 µM (active); in [18] it was < 0.03 µM (active); in [19] it was > 30 µM (not active); in assay [20], 0.899 µM (active); in [21], > 180 µM (inactive). Besides, the concentration giving a half-maximal response (EC50) is 24.3 µM (active) in [22]; 45.2 µM (active) in assay [24]; > 20 µM (inactive) in assay [6]; 0.495 µM (active) in assay [25]; 0.502 µM (active) in assay [26]; > 20 µM (inactive) in [27]. In addition, the 50% effective concentration (EC50) is 0.931 µM (active) in assay [28], 0.249 µM (active) in assay [29] and > 12 µM (inconclusive) in assay [30]. Moreover, the AC50 in assay [17] is 0.22 µM (active). For the same molecule, the IC50 in [3], in assay [23], in assay [4] and in [8] was > 20 µM (inactive) each time.
Regarding `Cc1ccc(C)n1-c1cccc(C(=O)O)c1`, the IC50 in assay [31] was 18.5 µM (active); in assay [32], 48.3 µM (active); in assay [33], > 10 µM (not active); in [34] it was 1.13 µM (active).
Consider `C(=C\c1sc(Nc2ccccc2)n[n+]1-c1ccccc1)/c1ccccc1`, for which the results for the IC50 in assay [35] and in assay [36] were > 66.6 µM (inactive) and 48.8 µM (inactive), respectively.
